Data on 21 compounds can be found in ChEMBL document CHEMBL1221268, “Synthesis of a series of novel 2,4,5-trisubstituted selenazole compounds as potential PLTP inhibitors” (Bioorg Med Chem Lett, 2010).

For test [1], the target named is T1, Cholesteryl ester transfer protein (Homo sapiens, UniProt P11597).
T1 sequence (P11597 whole entry): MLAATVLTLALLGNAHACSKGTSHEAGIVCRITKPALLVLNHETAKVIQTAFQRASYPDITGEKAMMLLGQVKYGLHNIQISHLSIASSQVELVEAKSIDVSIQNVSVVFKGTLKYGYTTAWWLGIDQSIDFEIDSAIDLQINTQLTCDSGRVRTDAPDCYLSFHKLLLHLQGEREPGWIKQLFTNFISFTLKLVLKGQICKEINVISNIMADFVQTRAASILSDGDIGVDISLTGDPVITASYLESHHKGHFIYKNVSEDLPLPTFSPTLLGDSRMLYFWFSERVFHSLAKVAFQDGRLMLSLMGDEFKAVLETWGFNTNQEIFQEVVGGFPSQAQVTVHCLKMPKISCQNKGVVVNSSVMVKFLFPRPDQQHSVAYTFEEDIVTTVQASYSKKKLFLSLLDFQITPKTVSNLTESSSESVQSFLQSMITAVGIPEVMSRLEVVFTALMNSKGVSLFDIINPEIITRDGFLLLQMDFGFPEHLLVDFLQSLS
Briefly: Inhibition of CETP.

Test [2] deals with Phospholipid transfer protein (Homo sapiens, UniProt P55058). As to the kind of experiment: Inhibition of PLTP.
Phospholipid transfer protein, sequence (P55058 whole entry): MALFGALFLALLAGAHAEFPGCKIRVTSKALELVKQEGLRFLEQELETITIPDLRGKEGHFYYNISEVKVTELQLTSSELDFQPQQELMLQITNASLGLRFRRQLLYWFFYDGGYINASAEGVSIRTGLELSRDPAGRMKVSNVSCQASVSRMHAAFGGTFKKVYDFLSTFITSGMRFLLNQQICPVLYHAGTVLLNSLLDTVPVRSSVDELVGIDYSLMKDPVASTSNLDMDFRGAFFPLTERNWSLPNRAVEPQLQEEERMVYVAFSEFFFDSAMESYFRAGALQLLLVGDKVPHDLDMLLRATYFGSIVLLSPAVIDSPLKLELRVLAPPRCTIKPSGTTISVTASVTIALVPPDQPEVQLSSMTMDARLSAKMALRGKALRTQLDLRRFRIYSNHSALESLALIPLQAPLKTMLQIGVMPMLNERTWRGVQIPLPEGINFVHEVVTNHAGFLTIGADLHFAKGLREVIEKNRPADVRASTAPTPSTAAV

Take `COc1ccc(-c2nc(NC(=O)c3cc(OC)c(OC)c(OC)c3)[se]c2Cc2ccccc2)cc1`: the IC50 (as a rule, the concentration that inhibits the measured activity by half) in test [1] (read-out: IC50) is 25 µM; in test [2], “Not Active”.

On to `CCc1[se]c(NC(=O)c2ccc(Cl)cc2)nc1-c1ccc(O)cc1`, for which the IC50 entry is “Not Active” in test [1] and 60 µM in test [2] (read-out: IC50).

On to `CCc1[se]c(NC(=O)c2cc(O)c(O)c(O)c2)nc1-c1ccc(O)cc1`, for which the IC50 result in test [1] was “Not Active”; in test [2] (read-out: IC50) it was 32 µM.

`CCCCc1[se]c(NC(C)=O)nc1-c1ccc(O)cc1`: the IC50 entry in test [1] was “Not Active”; in test [2] (read-out: IC50), 60 µM.

Take `O=C(Nc1nc(-c2ccc(O)cc2)c(Cc2ccccc2)[se]1)c1ccc(O)c(O)c1`: the IC50 result in test [1] was “Not Active”; in test [2] (read-out: IC50), 35 µM.

Regarding `COc1ccc(-c2nc(NC(=O)c3ccc(OC)c(OC)c3)[se]c2Cc2ccccc2)cc1`, the IC50 in test [1] (read-out: IC50) amounted to 30 µM; in test [2] (read-out: IC50) it was 80 µM.

As to `CCCCc1[se]c(NC(=O)c2cc(O)c(O)c(O)c2)nc1-c1ccc(O)cc1`, the results for the IC50 result in test [1] and in test [2] (read-out: IC50) were “Not Active” and 10 µM, respectively.

Turning to `CCCCc1[se]c(NC(=O)c2ccc(OC)c(OC)c2)nc1-c1ccc(OC)cc1`, the IC50 result in test [1] is “Not Active”; in test [2] (read-out: IC50) it was 80 µM.

Take `CCc1[se]c(NC(=O)c2ccc(OC)c(OC)c2)nc1-c1ccc(OC)cc1`: the IC50 result in test [1] was “Not Active”; in test [2] (read-out: IC50), 100 µM.

Regarding `COc1ccc(-c2nc(NC(=O)c3ccc([N+](=O)[O-])cc3)[se]c2Cc2ccccc2)cc1`, the IC50 result in test [1] is “Not Active”; in test [2] (read-out: IC50), 85 µM.

`CCc1[se]c(NC(=O)c2cc(OC)c(OC)c(OC)c2)nc1-c1ccc(OC)cc1`: the IC50 entry in test [1] and in test [2] was “Not Active” throughout.

`CCCCCC(=O)Nc1nc(-c2ccc(O)cc2)c(Cc2ccccc2)[se]1`: the IC50 in test [1] (read-out: IC50) was determined as 25 µM; in test [2] (read-out: IC50), 60 µM.

Consider `O=C(Nc1nc(-c2ccc(O)cc2)c(Cc2ccccc2)[se]1)c1cc(O)c(O)c(O)c1`, for which the IC50 entry is “Not Active” in test [1] and 32 µM in test [2] (read-out: IC50).

`CCCCc1[se]c(NC(=O)c2ccc(Cl)cc2)nc1-c1ccc(O)cc1`: the IC50 result in test [1] is “Not Active”; in test [2] (read-out: IC50), 60 µM.

On to `CCCCc1[se]c(NC(=O)c2cc(OC)c(OC)c(OC)c2)nc1-c1ccc(OC)cc1`, for which the values for the IC50 result in test [1] and in test [2] (read-out: IC50) were “Not Active” and 150 µM, respectively.

For the compound `COc1cc(C(=O)Nc2nc(-c3ccccc3)c(-c3ccccc3)[se]2)cc(OC)c1OC`, the IC50 result in test [1] and in test [2] was “Not Active” each time.

As for `CCc1[se]c(NC(=O)c2ccc(Cl)cc2)nc1-c1ccc(OC)cc1`, the IC50 result in test [1] and in test [2] was “Not Active” each time.

For `O=C(Nc1nc(-c2ccccc2)c(-c2ccccc2)[se]1)c1cc(F)c(F)c(F)c1`, the IC50 entry in test [1] and in test [2] was “Not Active” each time.

As for `O=C(Nc1nc(-c2ccccc2)c(-c2ccccc2)[se]1)c1ccccc1`, the IC50 result in test [1] and in test [2] was “Not Active” in each case.

Turning to `O=C(Nc1nc(-c2ccccc2)c(-c2ccccc2)[se]1)c1cc(O)c(O)c(O)c1`, the figures for the IC50 result in test [1] and in test [2] (read-out: IC50) were “Not Active” and 25 µM, respectively.

Turning to `O=C(Nc1nc(-c2ccccc2)c(-c2ccccc2)[se]1)c1ccc(O)c(O)c1`, the IC50 entry in test [1] was “Not Active”; in test [2] (read-out: IC50), 8 µM.
